Values quoted from earlier work as cited in patent US20210128676A1, “METHOD OF TREATING PATIENTS WITH H[…] TYPE 1 AND LOW MEAN ARTERIAL PRESSURE” (Mallinckrodt Hospital Products IP Unlimited Company, priority 2019, published 2021).
Positions of bridges follow the written chain, without caps; N, C: chain ends. Residues, ends and D or L forms follow the SMILES beside them.

Conditions: in vivo

NC(=O)CC[C@@H]1NC(=O)[C@H](Cc2ccccc2)NC(=O)[C@H](Cc2ccc(O)cc2)NC(=O)[C@@H](N)CSSC[C@@H](C(=O)N2CCC[C@H]2C(=O)N[C@@H](CCCN=C(N)N)C(=O)NCC(N)=O)NC(=O)[C@H](CC(N)=O)NC1=O [vasopressin]
duration of action: 30 to 60 min | half-life: 0.1 h

NCCCC[C@H](NC(=O)[C@@H]1CCCN1C(=O)[C@@H]1CSSC[C@H](NC(=O)CNC(=O)CNC(=O)CN)C(=O)N[C@@H](Cc2ccc(O)cc2)C(=O)N[C@@H](Cc2ccccc2)C(=O)N[C@@H](CCC(N)=O)C(=O)N[C@@H](CC(N)=O)C(=O)N1)C(=O)NCC(N)=O [Terlipressin, N—[N—(N-glycylglycyl)glycyl]-8-L-lysinevasopressin] (H-GGGCYFQNCPKG-NH2; disulfide 4-9 (inferred))
half-life: 6 h
